Test system: 817829-284-R-J1-PDC complex spheroid viability
Test: Anticancer human tumor 817829-284-R-J1-PDC patient-derived colon adenocarcinoma cell line growth inhibition [POLQ]
Settings: for IC50: curve of first compound; for viability, T/C: stronger effect = lower value; active = viability on the fitted dose curve at most 10% of control; inactive = the rest
Method in brief: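 Growth inhibition in 3D: complex spheroids (tumor PDC, HUVEC, MSC) treated with POLQ inhibitor combinations; where Cmax unknown, highest tested concentration 10 microM, except SN-38 at 1 microM.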

[1] = second compound 0.0316 µM, first compound 0.00316 µM
[2] = second compound 0.0316 µM, first compound 0.01 µM
[3] = second compound 0.0316 µM, first compound 0.0316 µM
[4] = second compound 0.0316 µM, first compound 0.1 µM
[5] = second compound 0.1 µM, first compound 0.00316 µM
[6] = second compound 0.1 µM, first compound 0.01 µM
[7] = second compound 0.1 µM, first compound 0.0316 µM
[8] = second compound 0.1 µM, first compound 0.1 µM
[9] = second compound 0.316 µM, first compound 0.00316 µM
[10] = second compound 0.316 µM, first compound 0.01 µM
[11] = second compound 0.316 µM, first compound 0.0316 µM
[12] = second compound 0.316 µM, first compound 0.1 µM
[13] = second compound 1 µM, first compound 0.00316 µM
[14] = second compound 1 µM, first compound 0.01 µM
[15] = second compound 1 µM, first compound 0.0316 µM
[16] = second compound 1 µM, first compound 0.1 µM
[17] = second compound 3.16 µM, first compound 0.00316 µM
[18] = second compound 3.16 µM, first compound 0.01 µM
[19] = second compound 3.16 µM, first compound 0.0316 µM
[20] = second compound 3.16 µM, first compound 0.1 µM
[21] = second compound 10 µM, first compound 0.00316 µM
[22] = second compound 10 µM, first compound 0.01 µM
[23] = second compound 10 µM, first compound 0.0316 µM
[24] = second compound 10 µM, first compound 0.1 µM
[25] = second compound 0.0316 µM, first compound 0.316 µM
[26] = second compound 0.0316 µM, first compound 1 µM
[27] = second compound 0.1 µM, first compound 0.316 µM
[28] = second compound 0.1 µM, first compound 1 µM
[29] = second compound 0.316 µM, first compound 0.316 µM
[30] = second compound 0.316 µM, first compound 1 µM
[31] = second compound 1 µM, first compound 0.316 µM
[32] = second compound 1 µM, first compound 1 µM
[33] = second compound 3.16 µM, first compound 0.316 µM
[34] = second compound 3.16 µM, first compound 1 µM
[35] = second compound 10 µM, first compound 0.316 µM
[36] = second compound 10 µM, first compound 1 µM
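Note: spheroids exposed to compounds for 7 days.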
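Throughout, for viability, T/C: 100% = DMSO vehicle-treated spheroids.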

CC[C@@]1(O)C(=O)OCc2c1cc1n(c2=O)Cc2cc3c(CN(C)C)c(O)ccc3nc2-1 + Nc1ccc(C#CCN(C(=O)Cc2ncc(C(F)(F)F)cc2C(F)(F)F)c2ccc(F)cc2)nn1
8.84 nM: IC50 (second compound 1 µM)
inactive: viability, T/C (second compound 0.0316 µM, first compound 0.000316 µM) 91.3% | viability, T/C (second compound 0.0316 µM, first compound 0.001 µM) 99% | viability, T/C [1] 85.9% | viability, T/C [2] 43.2% | viability, T/C [3] 24.2% | viability, T/C [4] 15.9% | viability, T/C (second compound 0.1 µM, first compound 0.000316 µM) 90.2% | viability, T/C (second compound 0.1 µM, first compound 0.001 µM) 86% | viability, T/C [5] 88.2% | viability, T/C [6] 48.9% | viability, T/C [7] 20.9% | viability, T/C [8] 17.3% | viability, T/C (second compound 0.316 µM, first compound 0.000316 µM) 106% | viability, T/C (second compound 0.316 µM, first compound 0.001 µM) 93.3% | viability, T/C [9] 85% | viability, T/C [10] 54.4% | viability, T/C [11] 21.3% | viability, T/C [12] 17.9% | viability, T/C (second compound 1 µM, first compound 0.000316 µM) 111% | viability, T/C (second compound 1 µM, first compound 0.001 µM) 115% | viability, T/C [13] 86.6% | viability, T/C [14] 45.5% | viability, T/C [15] 24.4% | viability, T/C [16] 15.7% | viability, T/C (second compound 3.16 µM, first compound 0.000316 µM) 95.1% | viability, T/C (second compound 3.16 µM, first compound 0.001 µM) 94.3% | viability, T/C [17] 82% | viability, T/C [18] 57.2% | viability, T/C [19] 20.1% | viability, T/C [20] 13.9% | viability, T/C (second compound 10 µM, first compound 0.000316 µM) 93.8% | viability, T/C (second compound 10 µM, first compound 0.001 µM) 91.2% | viability, T/C [21] 62.1% | viability, T/C [22] 43.2% | viability, T/C [23] 25.6% | viability, T/C [24] 15.1%
12 nM: IC50 (second compound 3.16 µM)
11 nM: IC50 (second compound 0.316 µM)
8.46 nM: IC50 (second compound 0.0316 µM)
6.8 nM: IC50 (second compound 10 µM)
9.72 nM: IC50 (second compound 0.1 µM)

CCc1c2c(nc3ccc(O)cc13)-c1cc3c(c(=O)n1C2)COC(=O)[C@]3(O)CC + Nc1ccc(C#CCN(C(=O)Cc2ncc(C(F)(F)F)cc2C(F)(F)F)c2ccc(F)cc2)nn1
inactive: viability, T/C [1] 22.5% | viability, T/C [2] 14.5% | viability, T/C [3] 14.1% | viability, T/C [5] 20.9% | viability, T/C [6] 17.8% | viability, T/C [7] 12.8% | viability, T/C [9] 18.2% | viability, T/C [10] 19.1% | viability, T/C [11] 11.2% | viability, T/C [13] 22.2% | viability, T/C [14] 21.4% | viability, T/C [15] 14.4% | viability, T/C [17] 15.1% | viability, T/C [18] 16.2% | viability, T/C [19] 13% | viability, T/C [21] 21.7% | viability, T/C [22] 17% | viability, T/C [23] 10%
active: viability, T/C [4] 9.79% | viability, T/C [25] 5.25% | viability, T/C [26] 3.01% | viability, T/C [8] 8.52% | viability, T/C [27] 4.76% | viability, T/C [28] 2.98% | viability, T/C [12] 7.52% | viability, T/C [29] 4.9% | viability, T/C [30] 2.95% | viability, T/C [16] 7.16% | viability, T/C [31] 4.75% | viability, T/C [32] 2.54% | viability, T/C [20] 7.06% | viability, T/C [33] 4.44% | viability, T/C [34] 2.95% | viability, T/C [24] 7.06% | viability, T/C [35] 3.78% | viability, T/C [36] 2.98%
< 3.16 nM: IC50 (second compound 0.0316 µM) | IC50 (second compound 0.1 µM) | IC50 (second compound 0.316 µM) | IC50 (second compound 1 µM) | IC50 (second compound 3.16 µM) | IC50 (second compound 10 µM)

CNCc1ccc(-c2[nH]c3cc(F)cc4c3c2CCNC4=O)cc1 + Nc1ccc(C#CCN(C(=O)Cc2ncc(C(F)(F)F)cc2C(F)(F)F)c2ccc(F)cc2)nn1
8040 nM: IC50 (second compound 10 µM)
7780 nM: IC50 (second compound 0.1 µM)
6740 nM: IC50 (second compound 0.0316 µM)
7270 nM: IC50 (second compound 3.16 µM)
inactive: viability, T/C [3] 85.2% | viability, T/C [4] 83.8% | viability, T/C [25] 86.4% | viability, T/C [26] 73.8% | viability, T/C (second compound 0.0316 µM, first compound 3.16 µM) 67.4% | viability, T/C (second compound 0.0316 µM, first compound 10 µM) 41.2% | viability, T/C [7] 81% | viability, T/C [8] 97% | viability, T/C [27] 83% | viability, T/C [28] 73.8% | viability, T/C (second compound 0.1 µM, first compound 3.16 µM) 65.3% | viability, T/C (second compound 0.1 µM, first compound 10 µM) 45.8% | viability, T/C [11] 80.6% | viability, T/C [12] 88.7% | viability, T/C [29] 82.8% | viability, T/C [30] 60.8% | viability, T/C (second compound 0.316 µM, first compound 3.16 µM) 65% | viability, T/C (second compound 0.316 µM, first compound 10 µM) 52.9% | viability, T/C [15] 97.7% | viability, T/C [16] 86.5% | viability, T/C [31] 90.1% | viability, T/C [32] 73.3% | viability, T/C (second compound 1 µM, first compound 3.16 µM) 74.3% | viability, T/C (second compound 1 µM, first compound 10 µM) 48% | viability, T/C [19] 103% | viability, T/C [20] 83.6% | viability, T/C [33] 83.2% | viability, T/C [34] 85.8% | viability, T/C (second compound 3.16 µM, first compound 3.16 µM) 83.6% | viability, T/C (second compound 3.16 µM, first compound 10 µM) 37.3% | viability, T/C [23] 86.2% | viability, T/C [24] 75.7% | viability, T/C [35] 76.9% | viability, T/C [36] 79.5% | viability, T/C (second compound 10 µM, first compound 3.16 µM) 75.2% | viability, T/C (second compound 10 µM, first compound 10 µM) 44.1%
> 10000 nM: IC50 (second compound 0.316 µM) | IC50 (second compound 1 µM)
